Data set [1] in a line: in vitro. The note with it: human.
The test system of data set [2] is HCV replicon cells (2209-23), genotype 1b replicon in Huh7 cells. Put plainly: HCV replicon assay (Renilla luciferase reporter). In kind it is cell-based, HCV genotype 1b; human hepatoma Huh7 cells. Conditions: Hepatitis C virus, Huh-7, 72 h, 2209-23 cells, three days incubation.
Data set [3] concerns the target T1, HCV polymerase (NS5B570n-Con1) (Hepatitis C virus genotype 1b, UniProt Q9WMX2).
T1 construct: contains a 21 amino acid deletion at the C-terminus relative to the full-length HCV polymerase; made in house; host or cells: E. coli strain BL21(DE) pLysS, plasmid pET17b
Put plainly: HCV NS5B RNA polymerase activity (HCV Polymerase Assay). It is filed as biochemical, HCV Con1 strain. On the procedure:
The enzymatic activity of HCV polymerase (NS5B570n-Con1) was measured as the incorporation of radiolabeled nucleotide monophosphates into acid insoluble RNA products. Unincorporated radiolabeled substrate was removed by filtration and scintillant was added to the washed and dried filter plate containing radiolabeled RNA product. The amount of RNA product generated by NS5B570-Con1 at the end of the reaction was directly proportional to the amount of light emitted by the scintillant.
The N-terminal 6-histidine tagged HCV polymerase, derived from HCV Con1 strain, genotype 1b (NS5B570n-Con1) contains a 21 amino acid deletion at the C-terminus relative to the full-length HCV polymerase and was purified from E. coli strain BL21(DE) pLysS. The construct, containing the coding sequence of HCV NS5B Con1 (GenBank accession number AJ242654) was inserted into the plasmid construct pET17b, downstream of a T7 promoter expression cassette and transformed into E. coli. A single colony was grown overnight as a starter culture and later used inoculate 10 L of LB media supplemented with 100 μg/mL ampicillin at 37° C. Protein expression was induced by the addition of 0.25 mM isopropyl-β-D-thiogalactopyranoside (IPTG) when optical density at […] of the culture was between 0.6 and 0.8 and cells were harvested after 16 to 18 h at 30° C. NS5B570n-Con1 was purified to homogeneity using a three-step protocol including subsequent column chromatography on Ni-NTA, SP-Sepharose HP and Superdex 75 resins.
Each 50 μL enzymatic reaction contained 20 nM RNA template derived from the complementary sequence of the Internal Ribosome Entry Site (cIRES), 20 nM NS5B570n-Con1 enzyme, 0.5 μCi of tritiated UTP (Perkin Elmer catalog no. TRK-412; specific activity: 30 to 60 Ci/mmol; stock solution concentration from 7.5×10^−5 M to 20.6×10^−6 M), 1 μM each ATP, CTP, and GTP, 40 mM Tris-HCl pH 8.0, 40 mM NaCl, 4 mM DTT (dithiothreitol), 4 mM MgCl2, and 5 μL of compound serial diluted in DMSO. Reaction mixtures were assembled in 96-well filter plates (cat #MADVNOB, Millipore Co.) and incubated for 2 h at 30° C. Reactions were stopped by addition of 10% final (v/v) trichloroacetic acid and incubated for 40 min at 4° C. Reactions were filtered, washed with 8 reaction volumes of 10% (v/v) trichloroacetic acetic acid, 4 reaction volumes of 70% (v/v) ethanol, air dried, and 25 μL of scintillant (Microscint 20, Perkin-Elmer) was added to each reaction well.
The amount of light emitted from the scintillant was converted to counts per minute (CPM) on a Topcount® plate reader (Perkin-Elmer, Energy Range: Low, Efficiency Mode Normal, Count Time: 1 min, Background Subtract: none, Cross talk reduction: Off).
Data was analyzed in Excel® (Microsoft®) and ActivityBase® (Idbs®). The reaction in the absence of enzyme was used to determine the background signal, which was subtracted from the enzymatic reactions. Positive control reactions were performed in the absence of compound, from which the background corrected activity was set as 100% polymerase activity. All data was expressed as a percentage of the positive control.
The compound concentration at which the enzyme-catalyzed rate of RNA synthesis was reduced by 50% (IC50) was calculated by fitting equation (i) to the data where“Y”
[formula] corresponds to the relative enzyme activity (in %), “% Min” is the residual relative activity at saturating compound concentration, “% Max” is the relative maximum enzymatic activity, “X” corresponds to the compound concentration, and “S” is the Hill coefficient (or slope).

For orientation: IC50 means the point on the concentration scale where inhibition reaches its midpoint. Lower therefore signals inhibition by little substance. Broadly, the melting point is the temperature, or range, at which the solid turns liquid.

For the compound `COc1c(/C=C/c2ccc(NS(C)(=O)=O)cc2)cc(N2CCC(C)(C)NC2=O)cc1C(C)(C)C` [Compound I-5, N-(4-{(E)-2-[3-tert-Butyl-5-(4,4-dimethyl-2-oxo-tetrahydro-pyrimidin-1-yl)-2-methoxy-phenyl]-vinyl}-phenyl)-methanesulfonamide], in data set [1], the CC50 stood at 13800 nM. The IC50 in data set [2] was found to be 19 nM; in data set [3], 1 nM.

In turn, `COc1c(/C=C/c2ccc(NS(C)(=O)=O)cc2)cc(-n2ccncc2=O)cc1C(C)(C)C` [Compound I-13] displayed a melting point of 214 to 216 °C. In data set [1], this compound came in with a CC50 of 21400 nM. 18.6 nM corresponded to half-maximal inhibition in data set [2] (IC50). Besides, the midpoint of inhibition in data set [3], the IC50, lay at 0.31 nM.
